From patent US20180353462A1, “[…] AGENTS […] FLAVONOID DERIVATIVES TARGETING KINASES, SIRTUINS AND ONCOGENIC AGENTS FOR THE TREATMENT OF CANCERS” (priority 2015, published 2018)

target: T1, PDGFRB (Homo sapiens, UniProt P09619); assay: Kinase competition binding assay, PDGFRB; details: Table 1 kinase panel
T1 construct: catalytic domain constructs for large multi-domain kinases; T7 phage fusion (most assays) or DNA tag for qPCR (HEK-293-made kinases); made in house
Procedure: (§1) Cannabis flavonoids and their analogs were subjected to kinase inhibition assay. The compounds were first screened at a single concentration of 10 μM in the primary assay. […]. To determine the kd or IC50 values, competition binding assays were established, authenticated and executed as described previously. Fabian et al., “A Small Molecule-Kinase Interaction Map For Clinical Kinase Inhibitors.”, Nat Biotechnol, 23(3):329-36, Epub (2005). See also, Karaman et al., “A Quantitative Analysis Of Kinase Inhibitor Selectivity”, Nat. Biotechnol. […] For most assays, kinases were fused to T7 phage strains (Fabian, supra) and for the other assays, kinases were produced in HEK-293 cells after which they were tagged with DNA for quantitative PCR detection. In general, full-length constructs were used for small, single domain kinases, and catalytic domain constructs for large multi-domain kinases. The binding assays utilized streptavidin-coated magnetic beads treated with biotinylated small molecule ligands for 30 minutes at room temperature which generated affinity resins for the kinase assays. The liganded beads were blocked with excess biotin and washed with blocking buffer (SeaBlock (Pierce), 1% BSA, 0.05% Tween 20, 1 mM DTT) to remove unbound ligand and to reduce non-specific phage binding. […] Test compounds were prepared as 40× stocks in 100% DMSO and diluted directly into the assay (Final DMSO concentration=2.5%). All reactions were performed in polypropylene 384-well plates in a final volume of 0.04 ml. […] The beads were then re-suspended in elution buffer (1×PBS, 0.05% Tween 20, 0.5 μM non-biotinylated affinity ligand) and incubated at room temperature with shaking for 30 minutes. The kinase concentration in the eluates was measured by quantitative PCR. An illustration of the kinase interaction process is presented below. Kd/IC50 values were determined using a standard dose response curve using the hill equation. Curves were fitted using a non-linear least square fit with the Levenberg-Marquardt algorithm.
(§2) The compound(s) were screened at 10 μM and results for primary screen binding interactions are reported as ‘% Ctrl’, where lower numbers indicate stronger hits in the matrix.

T1 sequence (P09619 600-962 limits assumed): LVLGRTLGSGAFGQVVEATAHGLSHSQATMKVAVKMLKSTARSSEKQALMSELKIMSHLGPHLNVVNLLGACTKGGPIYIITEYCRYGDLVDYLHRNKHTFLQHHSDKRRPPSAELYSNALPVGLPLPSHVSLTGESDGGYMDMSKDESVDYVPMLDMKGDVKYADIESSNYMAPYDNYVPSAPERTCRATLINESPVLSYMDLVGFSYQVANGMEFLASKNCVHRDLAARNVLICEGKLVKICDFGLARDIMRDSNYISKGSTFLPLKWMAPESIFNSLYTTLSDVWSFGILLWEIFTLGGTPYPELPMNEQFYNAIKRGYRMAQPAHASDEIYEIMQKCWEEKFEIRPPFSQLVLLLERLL

Structure (SMILES) | IC50 [nM]
COc1cc(-c2cc(=O)c3c(O)cc(O)c(C/C=C(\C)CCC=C(C)C)c3o2)ccc1O [FBL-03C] | > 1000
COc1cc(-c2cc(=O)c3c(O)c(CC=C(C)C)c(O)cc3o2)ccc1O [FBL-03B] | 1160

target: T2, FGR (Homo sapiens, UniProt P09769); assay: Kinase competition binding assay, FGR; details: Table 1 kinase panel
T2 construct: made in house
Procedure: as §1, §2

T2 sequence (P09769 whole entry): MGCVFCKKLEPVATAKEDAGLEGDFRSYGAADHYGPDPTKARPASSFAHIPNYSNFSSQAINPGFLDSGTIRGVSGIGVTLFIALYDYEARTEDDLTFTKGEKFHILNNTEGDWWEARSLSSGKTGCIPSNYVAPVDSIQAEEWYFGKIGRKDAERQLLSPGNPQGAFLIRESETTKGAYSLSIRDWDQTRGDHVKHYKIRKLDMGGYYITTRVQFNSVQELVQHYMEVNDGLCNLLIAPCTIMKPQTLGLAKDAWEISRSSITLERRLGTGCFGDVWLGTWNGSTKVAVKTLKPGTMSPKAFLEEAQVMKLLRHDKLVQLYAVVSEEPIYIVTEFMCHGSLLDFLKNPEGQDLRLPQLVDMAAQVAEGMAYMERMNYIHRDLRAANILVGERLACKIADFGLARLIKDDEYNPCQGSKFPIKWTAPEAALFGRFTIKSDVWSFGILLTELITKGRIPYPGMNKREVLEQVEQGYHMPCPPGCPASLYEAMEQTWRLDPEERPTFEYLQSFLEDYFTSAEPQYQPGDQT

Structure (SMILES) | IC50 [nM]
COc1cc(-c2cc(=O)c3c(O)cc(O)c(C/C=C(\C)CCC=C(C)C)c3o2)ccc1O [FBL-03C] | > 20000
COc1cc(-c2cc(=O)c3c(O)c(CC=C(C)C)c(O)cc3o2)ccc1O [FBL-03B] | 224

target: T3, KIT(L576P) (Homo sapiens, UniProt P10721, L576P); assay: Kinase competition binding assay, KIT(L576P); details: Table 1 kinase panel
T3 construct: made in house
Procedure: as §1, §2

T3 sequence (P10721 26-976 L576P): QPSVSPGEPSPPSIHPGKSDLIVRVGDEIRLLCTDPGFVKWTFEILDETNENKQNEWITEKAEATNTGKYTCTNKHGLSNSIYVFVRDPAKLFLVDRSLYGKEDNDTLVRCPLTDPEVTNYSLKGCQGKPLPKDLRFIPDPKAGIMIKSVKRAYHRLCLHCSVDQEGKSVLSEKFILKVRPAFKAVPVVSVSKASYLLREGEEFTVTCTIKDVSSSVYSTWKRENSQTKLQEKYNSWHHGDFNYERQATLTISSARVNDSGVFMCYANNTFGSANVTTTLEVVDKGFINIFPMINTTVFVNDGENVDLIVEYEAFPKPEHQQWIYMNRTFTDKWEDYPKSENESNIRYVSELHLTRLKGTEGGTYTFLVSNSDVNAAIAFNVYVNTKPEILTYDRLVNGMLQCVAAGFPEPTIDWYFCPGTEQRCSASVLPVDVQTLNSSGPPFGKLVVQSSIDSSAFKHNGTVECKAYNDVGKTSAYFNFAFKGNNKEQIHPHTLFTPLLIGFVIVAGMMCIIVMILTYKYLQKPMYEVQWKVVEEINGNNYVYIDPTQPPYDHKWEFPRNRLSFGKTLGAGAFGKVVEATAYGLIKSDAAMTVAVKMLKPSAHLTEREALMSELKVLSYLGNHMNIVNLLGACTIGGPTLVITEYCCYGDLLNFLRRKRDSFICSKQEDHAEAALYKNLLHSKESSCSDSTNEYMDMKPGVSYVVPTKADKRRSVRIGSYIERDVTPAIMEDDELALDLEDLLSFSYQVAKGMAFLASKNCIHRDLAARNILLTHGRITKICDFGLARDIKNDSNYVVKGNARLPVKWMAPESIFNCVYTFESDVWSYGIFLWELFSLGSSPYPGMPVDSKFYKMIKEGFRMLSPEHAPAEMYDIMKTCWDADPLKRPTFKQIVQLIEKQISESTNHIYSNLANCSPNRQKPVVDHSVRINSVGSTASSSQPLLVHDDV

Structure (SMILES) | IC50 [nM]
COc1cc(-c2cc(=O)c3c(O)cc(O)c(C/C=C(\C)CCC=C(C)C)c3o2)ccc1O [FBL-03C] | > 1000
COc1cc(-c2cc(=O)c3c(O)c(CC=C(C)C)c(O)cc3o2)ccc1O [FBL-03B] | < 1000

target: T4, MEK5 (Homo sapiens, UniProt Q13163); assay: Kinase competition binding assay, MEK5; details: Table 1 kinase panel
T4 construct: made in house
T4 sequence (Q13163 1-448): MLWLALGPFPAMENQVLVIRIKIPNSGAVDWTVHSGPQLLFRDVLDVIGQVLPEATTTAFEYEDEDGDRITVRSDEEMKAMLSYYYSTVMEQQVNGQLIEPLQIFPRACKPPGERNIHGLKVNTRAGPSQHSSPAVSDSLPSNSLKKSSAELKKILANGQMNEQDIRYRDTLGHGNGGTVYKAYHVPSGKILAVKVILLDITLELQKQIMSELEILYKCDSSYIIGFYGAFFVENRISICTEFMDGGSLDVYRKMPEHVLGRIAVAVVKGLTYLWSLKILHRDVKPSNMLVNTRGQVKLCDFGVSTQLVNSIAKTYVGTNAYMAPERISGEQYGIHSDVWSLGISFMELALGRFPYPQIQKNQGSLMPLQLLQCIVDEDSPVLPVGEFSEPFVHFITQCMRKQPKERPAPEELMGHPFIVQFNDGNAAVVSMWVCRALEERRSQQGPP
Procedure: as §1, §2

Structure (SMILES) | IC50 [nM]
COc1cc(-c2cc(=O)c3c(O)cc(O)c(C/C=C(\C)CCC=C(C)C)c3o2)ccc1O [FBL-03C] | 84
COc1cc(-c2cc(=O)c3c(O)c(CC=C(C)C)c(O)cc3o2)ccc1O [FBL-03B] | > 1000

target: T5, PDGFRa(T674I) (Homo sapiens, UniProt P16234, T674I); assay: Kinase competition binding assay, PDGFRa(T674I); details: Table 1 kinase panel
T5 construct: catalytic domain constructs for large multi-domain kinases; T7 phage fusion (most assays) or DNA tag for qPCR (HEK-293-made kinases); made in house
Procedure: as §1, §2

T5 sequence (P16234 593-954 T674I limits assumed): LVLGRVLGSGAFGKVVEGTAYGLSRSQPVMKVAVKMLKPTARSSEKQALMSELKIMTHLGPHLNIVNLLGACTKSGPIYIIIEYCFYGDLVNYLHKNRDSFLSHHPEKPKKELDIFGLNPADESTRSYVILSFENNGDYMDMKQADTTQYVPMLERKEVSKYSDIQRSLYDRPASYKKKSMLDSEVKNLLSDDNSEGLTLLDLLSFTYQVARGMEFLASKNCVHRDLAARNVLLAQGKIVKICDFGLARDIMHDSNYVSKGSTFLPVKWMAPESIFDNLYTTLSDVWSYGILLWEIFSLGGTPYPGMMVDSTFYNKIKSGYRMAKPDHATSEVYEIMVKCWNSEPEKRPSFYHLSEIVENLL

Structure (SMILES) | IC50 [nM]
COc1cc(-c2cc(=O)c3c(O)cc(O)c(C/C=C(\C)CCC=C(C)C)c3o2)ccc1O [FBL-03C] | > 1000
COc1cc(-c2cc(=O)c3c(O)c(CC=C(C)C)c(O)cc3o2)ccc1O [FBL-03B] | 0.92

target: T6, KIT(V559D) (Homo sapiens, UniProt P10721, V559D); assay: Kinase competition binding assay, KIT(V559D); details: Table 1 kinase panel
T6 construct: made in house
Procedure: as §1, §2

T6 sequence (P10721 26-976 V559D): as the sequence (P10721 26-976 L576P) above, with V534D, P551L counted along it

Structure (SMILES) | IC50 [nM]
COc1cc(-c2cc(=O)c3c(O)cc(O)c(C/C=C(\C)CCC=C(C)C)c3o2)ccc1O [FBL-03C] | > 1000
COc1cc(-c2cc(=O)c3c(O)c(CC=C(C)C)c(O)cc3o2)ccc1O [FBL-03B] | < 1000

target: T7, DYRK1/DYRK1A (Homo sapiens, UniProt Q13627); assay: Kinase competition binding assay, DYRK1/DYRK1A; details: Table 1 kinase panel
T7 construct: made in house
Procedure: as §1, §2

Structure (SMILES) | IC50 [nM]
COc1cc(-c2cc(=O)c3c(O)cc(O)c(C/C=C(\C)CCC=C(C)C)c3o2)ccc1O [FBL-03C] | 620
COc1cc(-c2cc(=O)c3c(O)c(CC=C(C)C)c(O)cc3o2)ccc1O [FBL-03B] | < 1000

target: T8, RIOK1 (Homo sapiens, UniProt Q9BRS2); assay: Kinase competition binding assay, RIOK1; details: Table 1 kinase panel
T8 construct: T7 phage fusion (most assays) or DNA tag for qPCR (HEK-293-made kinases); made in house
T8 sequence (Q9BRS2 1-568): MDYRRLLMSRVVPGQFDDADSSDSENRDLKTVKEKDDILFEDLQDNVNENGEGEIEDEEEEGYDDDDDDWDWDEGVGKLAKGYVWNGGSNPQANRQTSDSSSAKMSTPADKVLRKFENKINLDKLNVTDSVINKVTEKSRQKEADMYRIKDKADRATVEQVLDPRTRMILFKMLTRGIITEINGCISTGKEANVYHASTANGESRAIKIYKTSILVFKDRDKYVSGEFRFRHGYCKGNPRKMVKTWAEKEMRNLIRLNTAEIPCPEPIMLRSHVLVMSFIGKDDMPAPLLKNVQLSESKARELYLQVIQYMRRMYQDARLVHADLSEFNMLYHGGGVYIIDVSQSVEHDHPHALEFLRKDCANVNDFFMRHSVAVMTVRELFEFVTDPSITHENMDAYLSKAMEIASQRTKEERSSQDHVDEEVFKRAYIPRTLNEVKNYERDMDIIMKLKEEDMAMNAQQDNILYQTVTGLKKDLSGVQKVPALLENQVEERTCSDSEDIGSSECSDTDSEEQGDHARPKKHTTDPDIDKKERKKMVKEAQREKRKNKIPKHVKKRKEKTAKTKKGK
Procedure: as §1, §2

Structure (SMILES) | IC50 [nM]
COc1cc(-c2cc(=O)c3c(O)cc(O)c(C/C=C(\C)CCC=C(C)C)c3o2)ccc1O [FBL-03C] | 340
COc1cc(-c2cc(=O)c3c(O)c(CC=C(C)C)c(O)cc3o2)ccc1O [FBL-03B] | > 10000

target: T9, c-Kit(Y823D) (Homo sapiens, UniProt P10721, Y823D); assay: Kinase competition binding assay, c-Kit(Y823D); details: Table 1 kinase panel
T9 construct: made in house
Procedure: as §1, §2

T9 sequence (P10721 26-976 Y823D): as the sequence (P10721 26-976 L576P) above, with P551L, Y798D counted along it

Structure (SMILES) | IC50 [nM]
COc1cc(-c2cc(=O)c3c(O)cc(O)c(C/C=C(\C)CCC=C(C)C)c3o2)ccc1O [FBL-03C] | > 20000
COc1cc(-c2cc(=O)c3c(O)c(CC=C(C)C)c(O)cc3o2)ccc1O [FBL-03B] | 244

target: T10, DRAK2 (Homo sapiens, UniProt O94768); assay: Kinase competition binding assay, DRAK2; details: Table 1 kinase panel
T10 construct: made in house
T10 sequence (O94768 1-372): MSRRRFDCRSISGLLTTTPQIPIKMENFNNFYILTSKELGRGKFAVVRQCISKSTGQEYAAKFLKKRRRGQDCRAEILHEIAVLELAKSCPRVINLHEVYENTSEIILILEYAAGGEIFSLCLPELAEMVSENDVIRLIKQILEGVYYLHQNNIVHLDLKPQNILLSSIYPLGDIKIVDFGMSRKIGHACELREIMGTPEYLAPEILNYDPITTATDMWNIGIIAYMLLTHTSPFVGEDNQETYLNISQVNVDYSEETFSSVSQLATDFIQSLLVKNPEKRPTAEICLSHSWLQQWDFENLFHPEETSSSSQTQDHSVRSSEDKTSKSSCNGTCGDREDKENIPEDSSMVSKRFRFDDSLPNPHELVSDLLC
Procedure: as §1, §2

Structure (SMILES) | IC50 [nM]
COc1cc(-c2cc(=O)c3c(O)cc(O)c(C/C=C(\C)CCC=C(C)C)c3o2)ccc1O [FBL-03C] | 980
COc1cc(-c2cc(=O)c3c(O)c(CC=C(C)C)c(O)cc3o2)ccc1O [FBL-03B] | < 1000

target: T11, PIK3CA(1800L) (Homo sapiens, UniProt P42336, I800L); assay: Kinase competition binding assay, PIK3CA(1800L); details: Table 1 kinase panel
T11 construct: T7 phage fusion (most assays) or DNA tag for qPCR (HEK-293-made kinases); made in house
Procedure: as §1, §2

T11 sequence (P42336 whole entry I800L, the tested form may be a part): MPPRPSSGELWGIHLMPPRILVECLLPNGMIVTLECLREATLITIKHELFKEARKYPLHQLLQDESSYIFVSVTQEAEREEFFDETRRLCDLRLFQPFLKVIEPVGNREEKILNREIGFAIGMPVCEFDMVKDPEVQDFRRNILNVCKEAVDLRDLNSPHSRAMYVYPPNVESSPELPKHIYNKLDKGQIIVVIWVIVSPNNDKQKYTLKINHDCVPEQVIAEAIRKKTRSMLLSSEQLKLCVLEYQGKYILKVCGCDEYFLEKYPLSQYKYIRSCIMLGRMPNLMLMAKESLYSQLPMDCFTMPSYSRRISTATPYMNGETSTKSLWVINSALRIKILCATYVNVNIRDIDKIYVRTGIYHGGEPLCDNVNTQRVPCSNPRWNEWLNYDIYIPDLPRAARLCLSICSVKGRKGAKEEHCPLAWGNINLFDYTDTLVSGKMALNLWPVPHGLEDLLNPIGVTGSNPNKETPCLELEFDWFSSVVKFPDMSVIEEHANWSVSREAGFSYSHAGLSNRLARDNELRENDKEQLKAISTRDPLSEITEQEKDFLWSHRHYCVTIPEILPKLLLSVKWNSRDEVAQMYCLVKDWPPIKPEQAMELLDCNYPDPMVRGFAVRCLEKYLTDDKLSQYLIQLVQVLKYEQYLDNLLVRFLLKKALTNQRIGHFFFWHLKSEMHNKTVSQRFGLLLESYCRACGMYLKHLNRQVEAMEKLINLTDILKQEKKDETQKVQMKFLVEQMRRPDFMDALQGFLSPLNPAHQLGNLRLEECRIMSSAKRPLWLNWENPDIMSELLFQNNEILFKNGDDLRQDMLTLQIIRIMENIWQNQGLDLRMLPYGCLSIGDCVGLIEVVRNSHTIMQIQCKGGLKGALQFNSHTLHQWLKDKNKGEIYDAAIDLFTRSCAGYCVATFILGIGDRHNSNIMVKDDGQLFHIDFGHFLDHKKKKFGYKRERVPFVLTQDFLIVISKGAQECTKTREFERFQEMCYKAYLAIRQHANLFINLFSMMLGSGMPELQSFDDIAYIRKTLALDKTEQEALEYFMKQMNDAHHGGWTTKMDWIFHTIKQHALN

Structure (SMILES) | IC50 [nM]
COc1cc(-c2cc(=O)c3c(O)cc(O)c(C/C=C(\C)CCC=C(C)C)c3o2)ccc1O [FBL-03C] | 780
